Our source for the EC50 values is patent publication US6699860B2, “Di-substituted aminomethyl-chroman derivative beta-3 adrenoreceptor agonists” (Bayer Pharmaceuticals Corporation, priority 2000, dated 2004).

Bounds are passed on as bounds.

For this assay, the target named is T1, human beta-3-adrenergic receptor (Homo sapiens, UniProt P13945).
T1 construct: Chinese hamster ovary (CHO) cells that stably express full-length human beta-3-adrenergic receptor; expressed in transfected cells
T1 sequence (P13945 whole entry): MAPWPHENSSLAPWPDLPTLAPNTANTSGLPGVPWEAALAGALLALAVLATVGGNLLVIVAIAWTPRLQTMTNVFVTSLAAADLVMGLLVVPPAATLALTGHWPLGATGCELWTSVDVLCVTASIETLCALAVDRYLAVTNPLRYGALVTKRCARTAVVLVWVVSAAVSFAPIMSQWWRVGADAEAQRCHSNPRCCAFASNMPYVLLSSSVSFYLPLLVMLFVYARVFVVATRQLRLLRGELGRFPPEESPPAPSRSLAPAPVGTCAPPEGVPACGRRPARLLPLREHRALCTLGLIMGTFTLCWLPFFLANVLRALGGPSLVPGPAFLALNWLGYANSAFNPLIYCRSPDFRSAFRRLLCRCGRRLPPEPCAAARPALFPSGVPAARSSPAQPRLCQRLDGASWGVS
In words: cAMP production (SPA) in CHO cells stably expressing human beta-3-adrenergic receptor, agonist activity. It is filed as cell-based. As to conditions: cAMP production in CHO cells expressing human beta-3-adrenergic receptor; compounds binned (≦1 μM or >1 μM); read-out: Beta-3 Agonistic Activity, EC50 values. The protocol:
The cell line is grown in 90% F12 nutrient mixture (HAM), 10% fetal bovine serum, 100 units/ml penicillin G sodium, […] streptomycin sulfate, and 2 mM L-glutamine at 37° C. in 95% air and 5% CO2. The transfected cell line is maintained with G418 (800ug/ml).
To test agonist activity, cells are exposed to test compound and then assayed for cAMP production. […] Test compounds are assayed from 10 μM to 3 nM with 3-fold serial dilutions. The control agonist, isoproterenol (10 mM stock in 1.1 mM ascorbate), is assayed by 3-fold dilution beginning at 1 μM. Following a 30-minute incubation with the test compounds, the buffer/compound mixture is removed. […] The cAMP values are then plotted to ascertain the EC50 of each compound tested.
With `CC(C)c1sc(-c2ccc3c(c2)CC[C@H](CNC[C@H](O)COc2ccccc2)O3)nc1C(=O)O` [Example 191], the EC50 (usually the midpoint of the concentration-response curve) is ≤ 1000 nM.

Regarding `COC(=O)c1ccc2cc(-c3ccc4c(c3)CC[C@H](CNC[C@H](O)COc3ccccc3)O4)ccc2c1` [Example 103, methyl 6-[(2R)-2-({[(2S)-2-hydroxy-3-phenoxypropyl]amino}methyl)-3,4-dihydro-02H-chromen-6-yl]-2-naphthoate], the EC50 is ≤ 1000 nM.

On to `O=C(O)c1nc(-c2ccc3c(c2)CC[C@H](CNC[C@H](O)COc2ccccc2)O3)sc1-c1ccccc1` [Example 188], for which the EC50 is ≤ 1000 nM.

For `O=C(O)c1ccc(-c2ccc3c(c2)CC[C@H](CNCC(O)COc2ccccc2-c2ccccc2)O3)cc1` (some centres unmarked) [Example 239], the concentration for a half-maximal effect (EC50) was ≤ 1000 nM.

Consider `O=C(O)CCc1ccc2c(c1)CC[C@H](CNC[C@H](O)COc1ccccc1F)O2` [Example 265, 3-[(2R)-2-({[(2S)-3-(2-Fluorophenoxy)-2-hydroxypropyl]amino}methyl)-3,4-dihydro-2H-chromen-6-yl]propanoic acid], for which the EC50 is ≤ 1000 nM.

Take `COC(=O)c1cc(-c2ccc3c(c2)CC[C@H](CNC[C@H](O)COc2ccccc2)O3)cc2c1OCC2` [Example 130]: the EC50 is ≤ 1000 nM.

With `COc1cc(-c2ccc3c(c2)CCC(CNC[C@H](O)COc2ccccc2)O3)ccc1C(=O)O` (stereo in doubt) [Example 206, 4-[(2S)-2-({[(2S)-2-hydroxy-3-phenoxypropyl]amino}methyl)-3,4-dihydro-2H-chromen-6-yl]-2-methoxybenzoic acid], the concentration giving a half-maximal response (EC50) is ≤ 1000 nM.

On to `COC(=O)c1ccc(-c2ccc3c(c2)CC[C@H](CNC[C@H](O)COc2ccccc2)O3)cc1` [Example 84, Methyl 4-[(2R)-2-({[(2S)-2-hydroxy-3-phenoxypropyl]amino}methyl)-3,4-dihydro-2H-chromen-6-yl]benzoate], for which the 50% effective concentration (EC50) was ≤ 1000 nM.

For the compound `O=C(O)c1ccc2cc(-c3ccc4c(c3)CC[C@H](CNC[C@H](O)COc3ccccc3)O4)ccc2c1` [Example 182], the EC50 was ≤ 1000 nM.

For the compound `O=C(O)CCc1ccc2c(c1)CC[C@H](CNC[C@H](O)COc1ccc(Cl)cc1)O2` [Example 267], the EC50 was > 1000 nM.

For `O=C(O)c1ccc(-c2ccc3c(c2)CC[C@H](CNC[C@H](O)COc2ccccc2)O3)cc1` [Example 142, 4-[(2R)-2-({[(2S)-2-Hydroxy-3-phenoxyropyl]amino}methyl)-3,4-dihydro-2H-chromen-6-yl]benzoic acid], the EC50 is ≤ 1000 nM.

In the case of `NC(=O)c1cc2c(OCC(O)CNC[C@H]3CCc4cc(CCC(=O)O)ccc4O3)cccc2[nH]1` (some centres unmarked) [Example 270], the concentration for a half-maximal effect (EC50) is > 1000 nM.

Take `COc1ccc(OCC(O)CNC[C@H]2CCc3cc(-c4ccc(C(=O)O)cc4)ccc3O2)cc1` (some centres unmarked) [Example 230]: the EC50 is > 1000 nM.

Turning to `O=C(NC1CCCCC1)c1cc(-c2ccc3c(c2)CC[C@H](CNC[C@H](O)COc2ccccc2)O3)ccn1` [Example 96], the EC50 was > 1000 nM.

Consider `CCOC(=O)c1sc(-c2ccc3c(c2)CC[C@H](CNC[C@H](O)COc2ccccc2)O3)nc1-c1ccccc1` [Example 136], for which the EC50 was > 1000 nM.

For the compound `O=C(O)CCc1ccc2c(c1)CC[C@H](CNC[C@H](O)COc1cccc(Cl)c1)O2` [Example 266], the EC50 is > 1000 nM.

Regarding `O=C(O)c1ccc(-c2ccc3c(c2)CC[C@H](CNC[C@H](O)CSc2cccc(C(F)(F)F)c2)O3)cc1` [Example 180], the EC50 is > 1000 nM.

On to `O=C(O)c1ccc(-c2ccc3c(c2)CC[C@H](CNCC(O)COc2ccccc2Cl)O3)cc1` (some centres unmarked) [Example 234], for which the EC50 was ≤ 1000 nM.

As for `COC(=O)c1csc(-c2ccc3c(c2)CC[C@H](CNC[C@H](O)COc2ccccc2)O3)c1` [Example 132], the EC50 was ≤ 1000 nM.

Take `O=C(O)c1ccc(-c2ccc3c(c2)CC[C@H](CNC[C@H](O)COc2ccccc2)O3)cc1NC1CCC1` [Example 201]: the EC50 was ≤ 1000 nM.

Turning to `O=C(O)c1ccc(-c2ccc3c(c2)CC[C@H](CNC[C@H](O)COc2cccc4[nH]c5ccccc5c24)O3)cc1` [Example 141, 4-[(2R)-2-({[(2S)-3-(9H-Carbazol-4-yloxy)-2-hydroxypropyl]amino}methyl)-3,4-dihydro-2H-chromen-6-yl]benzoic acid], the EC50 was ≤ 1000 nM.

Regarding `Cc1cc(C)c(OCC(O)CNC[C@H]2CCc3cc(-c4ccc(C(=O)O)cc4)ccc3O2)c(C)c1` (some centres unmarked) [Example 222], the EC50 was > 1000 nM.

For the compound `O=C(O)c1ccc(-c2ccc3c(c2)CC[C@H](CNC[C@H](O)COc2ccc(O)cc2)O3)cc1` [Example 163], the EC50 was ≤ 1000 nM.

Consider `O=C(O)c1ccc(-c2ccc3c(c2)CC[C@H](CNC[C@H](O)COc2cccc(Cl)c2)O3)cc1` [Example 254], for which the EC50 is ≤ 1000 nM.

With `O=C(O)CCc1ccc2c(c1)CC[C@H](CNC[C@H](O)COc1ccc(F)cc1)O2` [Example 268], the EC50 is ≤ 1000 nM.

As for `CCOC(=O)c1nc(-c2ccc3c(c2)CC[C@H](CNC[C@H](O)COc2ccccc2)O3)oc1-c1ccccc1` [Example 134], the EC50 was > 1000 nM.

`O=C(O)c1ccc(-c2ccc3c(c2)CC[C@H](CNC[C@H](O)COc2ccccc2F)O3)cc1` [Example 253]: the EC50 is ≤ 1000 nM.

With `Cc1ccccc1OCC(O)CNC[C@H]1CCc2cc(-c3ccc(C(=O)O)cc3)ccc2O1` (some centres unmarked) [Example 227], the EC50 is ≤ 1000 nM.

As to `CCOC(=O)c1nn(C)c(C)c1-c1ccc2c(c1)CC[C@H](CNC[C@H](O)COc1ccccc1)O2` [Example 131], the EC50 was ≤ 1000 nM.

Turning to `CC(C)c1nc(-c2ccc3c(c2)CC[C@H](CNC[C@H](O)COc2ccccc2)O3)sc1C(=O)O` [Example 190], the EC50 was ≤ 1000 nM.

In the case of `O=C(O)c1ccc(-c2ccc3c(c2)CC[C@H](CNC[C@H](O)COc2ccccc2O)O3)cc1` [Example 164], the EC50 was ≤ 1000 nM.

For `CCOC(=O)c1sc(-c2ccc3c(c2)CC[C@H](CNC[C@H](O)COc2ccccc2)O3)nc1C(C)C` [Example 137], the EC50 was > 1000 nM.

Regarding `CCCCNc1cc(-c2ccc3c(c2)CC[C@H](CNC[C@H](O)COc2ccccc2)O3)ccc1C(=O)O` [Example 195, 2-(butylamino)-4-[(2R)-2-({[(2)-2-hydroxy-3-(phenyloxy)propyl]amino}methyl)-3,4-dihydro-2H-chromen-6-yl]benzoic acid], the 50% effective concentration (EC50) was ≤ 1000 nM.

In the case of `CCCOc1cc(-c2ccc3c(c2)CC[C@H](CNC[C@H](O)COc2ccccc2)O3)ccc1C(=O)O` [Example 208], the EC50 is ≤ 1000 nM.

As for `O=C(O)c1csc(-c2ccc3c(c2)CC[C@H](CNC[C@H](O)COc2ccccc2)O3)c1` [Example 186], the EC50 is ≤ 1000 nM.

Turning to `O=C(O)c1ccc(-c2ccc3c(c2)CC[C@H](CNC[C@H](O)COc2ccccc2Cl)O3)cc1` [Example 252], the EC50 is ≤ 1000 nM.

In the case of `O=C(O)c1ccc(-c2ccc3c(c2)CCC(CNC[C@H](O)COc2ccccc2)O3)cc1O` (stereo in doubt) [Example 213, 2-hydroxy-4-[(2S)-2-({[(2S)-2-hydroxy-3-phenoxypropyl]amino}methyl)-3,4-dihydro-2H-chromen-6-yl]benzoic acid], the EC50 is ≤ 1000 nM.

Take `O=C(O)c1ccc(-c2ccc3c(c2)CC[C@H](CNC[C@H](O)COc2ccccc2)O3)cc1N1CCCCC1` [Example 202]: the EC50 was ≤ 1000 nM.

In the case of `COC(=O)c1ccc(-c2ccc3c(c2)CC[C@H](CNC[C@H](O)COc2cccc4[nH]c5ccccc5c24)O3)cc1` [Example 102], the EC50 was > 1000 nM.

On to `O=C(O)c1ccc(-c2ccc3c(c2)CC[C@H](CNC[C@H](O)CSc2ccc(Cl)cc2)O3)cc1` [Example 173], for which the EC50 is > 1000 nM.

Take `CC(C)c1cccc(C(C)C)c1OC[C@@H](O)CNC[C@H]1CCc2cc(-c3ccc(C(=O)O)cc3)ccc2O1` [Example 140, 4-[(2R)-2-({[(2S)-3-(2,6-diisopropylphenoxy)-2-hydroxypropyl]amino}methyl)-3,4-dihydro-2H-chromen-6-yl]benzoic acid]: the EC50 was > 1000 nM.

Consider `O=C(O)c1ccc(-c2ccc3c(c2)CC[C@H](CNC[C@H](O)CSc2ccccc2F)O3)cc1` [Example 174], for which the EC50 is ≤ 1000 nM.

On to `O=C(O)c1nc(-c2ccc3c(c2)CC[C@H](CNC[C@H](O)COc2ccccc2)O3)oc1-c1ccccc1` [Example 187], for which the EC50 is ≤ 1000 nM.

Turning to `CC(C)(C)c1ccc(-c2cc(-c3ccc4c(c3)CC[C@H](CNC[C@H](O)COc3ccccc3)O4)ccc2C(=O)O)cc1` [Example 220], the EC50 is ≤ 1000 nM.

With `COC(=O)c1cc(-c2ccc3c(c2)CC[C@H](CNC[C@H](O)COc2ccccc2)O3)cs1` [Example 133], the EC50 is ≤ 1000 nM.

`COCCOc1cc(-c2ccc3c(c2)CC[C@H](CNC[C@H](O)COc2ccccc2)O3)ccc1C(=O)O` [Example 210]: the EC50 was ≤ 1000 nM.

For the compound `CC(C)c1ccccc1SC[C@@H](O)CNC[C@H]1CCc2cc(-c3ccc(C(=O)O)cc3)ccc2O1` [Example 171], the EC50 was ≤ 1000 nM.

For `COCCc1ccc(OC[C@@H](O)CNC[C@H]2CCc3cc(-c4ccc(C(=O)O)cc4)ccc3O2)cc1` [Example 139, 4-{(2R)-2-[({(2S)-2-hydroxy-3-[4-(2-methoxyethyl)phenoxy]propyl}amino)methyl]-3,4-dihydro-2H-chromen-6-yl}benzoic acid], the EC50 is ≤ 1000 nM.

For the compound `O=C(O)c1sc(-c2ccc3c(c2)CC[C@H](CNC[C@H](O)COc2ccccc2)O3)nc1-c1ccccc1` [Example 189], the EC50 is ≤ 1000 nM.

In the case of `CC(C)Oc1cc(-c2ccc3c(c2)CC[C@H](CNC[C@H](O)COc2ccccc2)O3)ccc1C(=O)O` [Example 211], the EC50 was ≤ 1000 nM.
